Source: patent US20130203765A1, “DEUTERATED PYRROLOPYRIMIDINE COMPOUNDS AS INHIBITORS OF CDK4/6” (Novartis AG, priority 2010, published 2013)

How the values were obtained:
[1] = Rat pharmacokinetics, oral gavage 5 mg/kg; type: in vivo, Sprague Dawley rats; conditions: for AUC0-7 h of mono-methyl metabolite: PO 5 mg/kg of the parent (Example 1 or Comparator A), metabolite measured; for AUC0-7 h of mono-methyl metabolite / AUC0-7 h: n=3, plasma; for AUC0-7 h of mono-methyl metabolite / Tmax of mono-methyl metabolite / Tmax / AUC0-7 h / Cmax: mean; for Tmax of mono-methyl metabolite: PO 5 mg/kg of the parent, n=3, metabolite measured; for Tmax / AUC0-7 h / Cmax: PO 5 mg/kg; for Tmax / Cmax: n=3, dosed parent compound; for AUC0-7 h: dosed parent compound
Description: (§1) The plasma was separated, frozen and later analyzed. […] In the case of Comparator A the plasma was analyzed for Comparator A and its mono-methyl metabolite, Comparator B. The quantitation of each metabolite and its parent compound was done by LC-MS/MS with standard curves using authentic standards of each compound. The analysis allowed the characterization of the time-concentration profile and the calculation of pharmacokinetic (PK) parameters via non-compartmental methods.

CDK1/cyclin B = CDK1/cyclin B (Homo sapiens, UniProt P06493); assay: CDK1/cyclin B enzymatic activity assay (IMAP-FP); type: biochemical; conditions: 100 nM Tamra Histone-H1 peptide, 20 μM ATP, 120 min
Description: CDK1/Cyclin B Enzymatic Activity Assay A 384-well microtiter IMAP-FP™ (Molecular Devices Trade Mark Technology) endpoint assay was used for CDK1/cyclin B kinase activity measurements. The same assay was used for IC50 determination of small molecule inhibitors. […] No. R8139), 10 μL substrate mixture of Tamra Histone-H1 peptide (Molecular Devices, Cat. No. R7384) and ATP (Amersham Pharmacia, Cat. No. 27-2056-01) in the 1× Reaction Buffer with 1 mM DTT freshly added. […] All reactions were run at room temperature in black 384-well flat-bottom Costar plates (Corning, Cat. […] No. R8139).

CDK4/cyclin D1 = target: T1, CDK4/cyclin D1 (Homo sapiens, UniProt P11802); assay: CDK4/cyclin D1 enzymatic activity assay (Lance TR-FRET); type: biochemical; conditions: 0.3 nM CDK4/cyclin D1, 175 nM pRb152, 3 μM ATP, 60 min
T1 construct: His6 (N); made in house; host or cells: Sf21 insect cells (baculovirus)
Description: The same assay was used for IC50 determination of small molecule inhibitors. In general, the kinase reactions were carried out in 30 μL volumes in the reaction solution containing the following: 2 uL compound (in 20% DMSO), 18 uL CDK4/cyclin D1 in Assay Buffer (50 mM HEPES, pH 7.5, 5 mM MgCl2, 2 mM MnCl2, 1 mM DTT, 0.05% BSA, 0.02% Tween-20), 10 uL of the mixture of pRb152 and ATP. […] All reactions were run at room temperature in 384-well white flat-bottom OptiPlates (Perkin Elmer, Cat. No. 6007290) for 60 min then were quenched by the addition of 10 μL of 120 mM EDTA. The signals were captured by the addition of 40 μL of the Detection Solution containing the following: Detection Buffer (50 mM HEPES, pH 7.5, 30 mM EDTA, 0.1% Triton x-100, 0.05% BSA), 70 ng/mL anti-phospho-pRb(S780) (Cell Signaling Technology, Cat. No. 9307S), 1 nM Lance Eu-W1024-Rabbit anti-IgG (Perkin Elmer, Cat. No. AD0082), and 20 nM SureLight™ Allophycocyanin-Streptavidin (Perkin Elmer, Cat. No. CR130-100). The resulted solutions were incubated at room temperature for 2 hours before read on the Evision Multilabel Reader (Perkin Elmer, Envision 2102-0010).

[2] = Rat pharmacokinetics, intravenous injection 1 mg/kg; type: in vivo, Sprague Dawley rats; conditions: for AUC0-7 h of mono-methyl metabolite: IV 1 mg/kg of the parent (Example 1 or Comparator A), metabolite measured; for AUC0-7 h of mono-methyl metabolite / AUC0-7 h: n=2, plasma, mean; for AUC0-7 h: dosed parent compound
Description: as §1

Chain of CDK1/cyclin B (P06493 whole entry, species assumed): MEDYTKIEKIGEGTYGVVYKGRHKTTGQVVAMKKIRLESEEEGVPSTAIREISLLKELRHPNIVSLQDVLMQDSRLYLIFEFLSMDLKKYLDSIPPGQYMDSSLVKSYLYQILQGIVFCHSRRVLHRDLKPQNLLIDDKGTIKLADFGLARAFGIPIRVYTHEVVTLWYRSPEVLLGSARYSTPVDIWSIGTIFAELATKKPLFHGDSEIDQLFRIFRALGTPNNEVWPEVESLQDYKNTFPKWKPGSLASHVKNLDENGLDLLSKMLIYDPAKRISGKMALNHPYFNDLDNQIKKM
Chain of CDK1/cyclin B (P14635 whole entry partner, species assumed): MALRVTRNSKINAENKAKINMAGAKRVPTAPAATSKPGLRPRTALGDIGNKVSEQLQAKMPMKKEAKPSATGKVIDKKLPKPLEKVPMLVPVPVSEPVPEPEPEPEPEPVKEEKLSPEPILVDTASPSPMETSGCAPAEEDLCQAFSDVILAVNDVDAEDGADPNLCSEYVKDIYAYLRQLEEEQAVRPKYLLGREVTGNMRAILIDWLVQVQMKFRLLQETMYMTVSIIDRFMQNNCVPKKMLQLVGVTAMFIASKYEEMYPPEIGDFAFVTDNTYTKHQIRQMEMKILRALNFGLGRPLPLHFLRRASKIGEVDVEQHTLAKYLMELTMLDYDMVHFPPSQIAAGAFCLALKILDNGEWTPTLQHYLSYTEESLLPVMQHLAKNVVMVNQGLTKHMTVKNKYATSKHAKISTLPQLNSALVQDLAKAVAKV
T1 sequence (P11802 whole entry): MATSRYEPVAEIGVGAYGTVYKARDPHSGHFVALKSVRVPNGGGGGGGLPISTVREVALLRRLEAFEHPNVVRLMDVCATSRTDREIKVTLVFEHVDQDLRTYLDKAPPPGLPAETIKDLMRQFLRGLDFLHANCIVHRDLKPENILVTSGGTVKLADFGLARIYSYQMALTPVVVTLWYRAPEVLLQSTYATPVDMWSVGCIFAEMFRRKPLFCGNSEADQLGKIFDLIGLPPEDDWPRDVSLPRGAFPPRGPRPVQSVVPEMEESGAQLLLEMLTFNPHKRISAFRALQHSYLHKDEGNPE
T1 sequence (P24385 whole entry partner): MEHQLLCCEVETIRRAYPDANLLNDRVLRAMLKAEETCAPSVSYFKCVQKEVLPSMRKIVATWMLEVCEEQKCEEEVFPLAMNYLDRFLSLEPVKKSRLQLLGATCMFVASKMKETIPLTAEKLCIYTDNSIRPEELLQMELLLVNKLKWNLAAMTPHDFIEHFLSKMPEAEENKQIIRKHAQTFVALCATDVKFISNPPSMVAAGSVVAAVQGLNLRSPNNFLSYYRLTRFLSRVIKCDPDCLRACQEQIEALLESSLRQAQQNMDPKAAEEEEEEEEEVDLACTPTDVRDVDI

[2H]C([2H])([2H])NC(=O)c1cc2cnc(Nc3ccc(N4CCNCC4)cn3)nc2n1C1CCCC1 [Example 2, 7-cyclopentyl-2-(5-piperzin-1-yl-pyridin-2-ylamino)-7H-pyrrolo[2,3-d]pyrimidine-6-carboxylic acid methylamide-d3]
AUC0-7 h of mono-methyl metabolite [1]: 0.128 µM·h | Tmax of mono-methyl metabolite [1]: 3.3 h | IC50 (CDK1/cyclin B; 0.25 nM CDK1/cyclin B): > 15 µM | IC50 (CDK4/cyclin D1): 0.132 µM | AUC0-7 h of mono-methyl metabolite [2]: 0.066 µM·h

CNC(=O)c1cc2cnc(Nc3ccc(N4CCNCC4)cn3)nc2n1C1CCCC1 [Comparator B, 7-cyclopentyl-2-(5-piperazin-1-yl-pyridin-2-ylamino)-7H-pyrrolo[2,3-d]pyrimidine-6-carboxylic acid methylamide, reference compound]
AUC0-7 h of mono-methyl metabolite [1]: 0.372 µM·h | Tmax of mono-methyl metabolite [1]: 4.3 h | AUC0-7 h of mono-methyl metabolite [2]: 0.156 µM·h

CN(C)C(=O)c1cc2cnc(Nc3ccc(N4CCNCC4)cn3)nc2n1C1CCCC1 [Comparator A, 7-cyclopentyl-2-(5-piperazin-1-yl-pyridin-2-ylamino)-7H-pyrrolo[2,3-d]pyrimidine-6-carboxylic acid dimethylamide, reference compound]
Tmax [1]: 1.5 h | AUC0-7 h [1]: 1.618 µM·h | bioavailability ([1]; Sprague Dawley, plasma, PO 5 mg/kg vs IV 1 mg/kg, read-out: F (absolute oral bioavailability)): 31% | Cmax ([1]; Sprague Dawley, plasma): 348 nM | T½ ([2]; IV 1 mg/kg, n=2, mean): 2.3 h | AUC0-7 h ([2]; IV 1 mg/kg): 1.028 µM·h | clearance ([2]; Sprague Dawley, plasma, IV 1 mg/kg, n=2, mean): 34 mL/min/kg | Vd ([2]; Sprague Dawley, plasma, IV 1 mg/kg, n=2, mean, read-out: Vdss): 5.4 L/kg

7-cyclopentyl-2-(5-piperzin-1-yl-pyridin-2-ylamino)-7H-pyrrolo[2,3-d]pyrimidine-6-carboxylic acid dimethylamide-d5 [Example 1]
Absolute oral bioavailability higher than Comparator A ([1]; 5 mg/kg po): 1.8 fold | F (absolute oral bioavailability) ([1]; PO 5 mg/kg vs IV 1 mg/kg): 55% | Cmax [1]: 549 nM | Tmax [1]: 2 h | AUC0-7 h [1]: 2.432 µM·h | IC50 (CDK1/cyclin B; […] CDK1/cyclin B): > 15 µM | VDss higher than VDss of Comparator A ([2]; 1 mg/kg iv): approximately 1.6 fold | CL ([2]; IV 1 mg/kg, n=2, mean): 37 mL/min/kg | T½ ([2]; IV 1 mg/kg, n=2, mean): 3.2 h | Vdss ([2]; IV 1 mg/kg, n=2, mean): 8.6 L/kg | AUC0-7 h ([2]; IV 1 mg/kg): 0.883 µM·h
